Legend:
[1] = molecular target: T1, human cannabinoid CB2 receptor (Homo sapiens, UniProt P34972); assay: In vitro affinity for cannabinoid-CB2 receptors ([3H]CP-55,940 radioligand binding, CHO cell membranes); conditions: mean of at least three independent experiments, read-out: Human CB2 receptor binding pK1 (converted)
T1 construct: expressed in transfected cells; host or cells: CHO cells, stably transfected; membrane preparation
Protocol: In Vitro Affinity for Cannabinoid-CB2 Receptors
(§1) The affinity of the compounds of the invention for cannabinoid CB2 receptors can be determined using membrane preparations of Chinese hamster ovary (CHO) cells in which the human cannabinoid CB2 receptor is stably transfected in conjunction with [^3H]CP-55,940 as radioligand. After incubation of a freshly prepared cell membrane preparation with the [^3H]-ligand, with or without addition of compounds of the invention, separation of bound and free ligand is performed by filtration over glassfiber filters. Radioactivity on the filter is measured by liquid scintillation counting.

[2] = molecular target: T2, human cannabinoid CB1 receptor (Homo sapiens, UniProt P21554); assay: In vitro affinity for cannabinoid-CB1 receptors ([3H]CP-55,940 radioligand binding, CHO cell membranes); conditions: mean of at least three independent experiments, read-out: Human CB1 receptor binding pKi (converted)
T2 construct: expressed in transfected cells; host or cells: CHO cells, stably transfected; membrane preparation
Protocol: In Vitro Affinity for Cannabinoid-CB1 Receptors
as §1, with “CB1” for “CB2”

human CB1 receptor = molecular target: T3, human CB1 receptor (Homo sapiens, UniProt P21554); assay: In vitro cannabinoid-CB1 receptor (ant)agonism: [3H]-arachidonic acid release in CHO cells; type: cell-based; conditions: CHO cells with human CB1 receptor, read-out: Human CB1 Arachidonic acid release (CB1) pEC50 (converted)
T3 construct: expressed in transfected cells; host or cells: CHO cells
Protocol: In Vitro Cannabinoid-CB1Receptor (Ant)Agonism
In vitro CB1 receptor antagonism/agonism can be assessed with the human CB1 receptor cloned in Chinese hamster ovary (CHO) cells. CHO cells are grown in a Dulbecco's Modified Eagle's medium (DMEM) culture medium, supplemented with 10% heat-inactivated fetal calf serum. Medium is aspirated and replaced by DMEM, without fetal calf serum, but containing [^3H]-arachidonic acid and incubated overnight in a cell culture stove (5% CO2/95% air; 37° C.; water-saturated atmosphere). During this period [^3H]-arachidonic acid is incorporated in membrane phospholipids. On the test day, medium is aspirated and cells are washed three times using 0.5 ml DMEM, containing 0.2% bovine serum albumin (BSA). CB1 agonist stimulation leads to activation of PLA2 followed by release of [^3H]-arachidonic acid into the medium. This CB1 agonist-induced release is concentration-dependently antagonized by CB1 receptor antagonists, such as for example rimonabant.

human CB2 receptor = molecular target: T4, human CB2 receptor (Homo sapiens, UniProt P34972); assay: In vitro cannabinoid-CB2 receptor (ant)agonism: forskolin-stimulated cAMP accumulation (adenylate cyclase activity) in CHO K1 cells; type: cell-based; conditions: for EC50: agonism, 3x10^-7 M forskolin, read-out: Human CB2 CB2-mediated adenylate cyclase activity pEC50 (converted)
T4 construct: host or cells: CHO K1 cells
Protocol: In Vitro Cannabinoid-CB2 Receptor (Ant)Agonism
Functional activity at the cannabinoid CB2 receptor was assessed using a forskolin-stimulated cAMP accumulation assay. The ability of compounds to stimulate and inhibit adenylate cyclase activity was assessed in Chinese ovarian hamster (CHO) K1 cells expressing human CB2 (Euroscreen, Brussel) receptor. CHO cells were grown in a CHO—S—SFM-II culture medium, supplemented with 10% heat-inactivated foetal calf serum, 2 mM glutamine, 400 μg/ml Hygromycine B and 500 μg/ml G418 at 37° C. in 93% air/5% CO2. For incubation with test compounds, confluent cultures grown in 24 well plates were used. Each condition or substance was routinely tested in quadruplicate. Cells were loaded with 1 mCi [^3H]-adenine in 0.5 ml medium per well. After 2 hours, cultures were washed with 0.5 ml PBS containing 1 mM IBMX and incubated for 20 minutes with 0.5 ml PBS containing 1 mM IBMX and 3×10^−7 M forskolin with or without the test compound. Antagonistic effects of test compounds were determined as inhibition of 0.1 μM JWH-133-decreased [^3H]cAMP formation. After aspiration the reaction was stopped with 1 ml trichloroacetic acid (5% w/v). The [3H]-ATP and [^3H]-cAMP formed in the cellular extract were assayed as follows: a volume of 0.8 ml of the extract was passed over Dowex (50WX-4200-400 mesh) and aluminum oxide columns, eluted with water and 0.1 M imidazole (pH=7.5). Eluates were mixed with 7 ml Ultima-Flo [AP] and the β-radioactivity was counted with a liquid scintillation counter. The conversion of [^3H]-ATP into [^3H]-cAMP was expressed as the ratio in percentage radioactivity in the cAMP fraction as compared to the combined radioactivity in both cAMP and ATP fractions, and basal activity was subtracted to correct for spontaneous activity. […] Compounds were studied in a concentration range of 10^−10 M to 10^−6M. pEC50 and the pA2 were calculated according to Cheng-Prusoff equation (Cheng and Prusoff, 1973). […]

T2 sequence (P21554 whole entry): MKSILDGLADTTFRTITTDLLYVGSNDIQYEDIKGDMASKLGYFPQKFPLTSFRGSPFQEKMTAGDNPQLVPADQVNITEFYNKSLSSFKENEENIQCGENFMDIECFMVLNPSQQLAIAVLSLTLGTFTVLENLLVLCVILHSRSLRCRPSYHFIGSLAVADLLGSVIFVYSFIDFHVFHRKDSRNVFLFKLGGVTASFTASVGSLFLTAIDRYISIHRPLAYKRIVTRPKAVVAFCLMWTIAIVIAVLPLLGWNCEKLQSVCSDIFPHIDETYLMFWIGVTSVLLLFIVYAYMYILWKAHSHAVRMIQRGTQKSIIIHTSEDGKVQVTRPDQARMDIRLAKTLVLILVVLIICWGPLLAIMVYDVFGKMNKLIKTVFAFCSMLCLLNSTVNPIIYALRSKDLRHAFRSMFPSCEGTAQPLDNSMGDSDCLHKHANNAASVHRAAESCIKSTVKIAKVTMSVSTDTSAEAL
T3 sequence (P21554 whole entry): as above
T4 sequence (P34972 whole entry): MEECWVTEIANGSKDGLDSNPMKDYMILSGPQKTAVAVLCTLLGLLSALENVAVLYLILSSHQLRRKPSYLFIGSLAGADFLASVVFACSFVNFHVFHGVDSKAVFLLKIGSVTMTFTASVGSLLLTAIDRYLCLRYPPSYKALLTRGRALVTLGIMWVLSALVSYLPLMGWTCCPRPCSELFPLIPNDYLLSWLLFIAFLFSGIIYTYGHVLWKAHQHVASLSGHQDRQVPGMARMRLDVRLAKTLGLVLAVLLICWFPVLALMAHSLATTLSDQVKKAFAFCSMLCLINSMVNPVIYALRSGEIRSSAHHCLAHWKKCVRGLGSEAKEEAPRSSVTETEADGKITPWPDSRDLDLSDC
T1 sequence (P34972 whole entry): as above

## CCCCCC1=NN(C(=O)NCC2CCCCC2)CC1c1ccccc1 (centres unmarked) [Compound 12, N-(Cyclohexylmethyl)-3-(n-pentyl)-4-phenyl-4,5-dihydro-(1H)-pyrazole-1-carboxamide]
[1]
  Ki: 50.1 nM
[2]
  Ki: 15.8 nM

## CCCCCC1=NN(C(=O)NCC23CC4CC(CC(C4)C2)C3)CC1c1ccccc1 (centres unmarked) [Compound 11, N-(1-Adamantyl)methyl-3-(n-pentyl)-4-phenyl-4,5-dihydro-(1H)-pyrazole-1-carboxamide]
[1]
  Ki: 7.94 nM
Human CB1 receptor
  EC50: 2000 nM
[2]
  Ki: 15.8 nM

## CCCCCC1=NN(S(=O)(=O)NC[C@@H]2CC[C@H]3C[C@@H]2C3(C)C)CC1c1ccccc1 (relative stereo) [Compound 130, N-[(1R,2S,5R)-rel-6,6-dimethylbicyclo[3.1.1]heptan-2-methyl]-3-(n-pentyl)-4-phenyl-4,5-dihydro-(1H)-pyrazole-1-sulfonamide]
[1]
  Ki: 126 nM
[2]
  Ki: 316 nM

## CCCCCC1=NN(C(=O)NC2C3CC4CC(C3)CC2C4)CC1c1ccccc1 (centres unmarked)
other
  melting point: 71 °C

## CCCCCC1=NN(C(=O)NC[C@@H]2CC[C@H]3C[C@@H]2C3(C)C)CC1c1ccccc1 (relative stereo) [Compound 1, N-[(1R,2S,5R)-rel-6,6-dimethylbicyclo[3.1.1]heptan-2-methyl]-3-(n-pentyl)-4-phenyl-4,5-dihydro-(1H)-pyrazole-1-carboxamide]
[1]
  Ki: 12.6 nM
Human CB1 receptor
  EC50: 2000 nM
[2]
  Ki: 3.98 nM

## CCCCC1=NN(C(=O)NC(C)(C)Cc2ccccc2)CC1c1cccc(F)c1 (centres unmarked) [Compound 39, N-(2-phenyl-1,1-dimethyl-ethyl)-3-(n-butyl)-4-(3-fluorophenyl)-4,5-dihydro-(1H)-pyrazole-1-carboxamide]
[1]
  Ki: 126 nM
Human CB2 receptor
  EC50: 7.94 nM
[2]
  Ki: 3980 nM

## CCCCCC1=NN(C(=O)N[C@H]2C[C@H]3CC[C@]2(C)C3(C)C)CC1c1ccccc1 (stereo partly drawn) [Compound 13, N-[Endo-(1R,2S,4R)-1,7,7-trimethylbicyclo[2.2.1]hept-2-yl]-3-(n-pentyl)-4-phenyl-4,5-dihydro-(1H)-pyrazole-1-carboxamide]
[1]
  Ki: 7.94 nM
Human CB1 receptor
  EC50: 0.501 nM
[2]
  Ki: 7.94 nM

## CC1(C)[C@@H]2CC[C@@]1(C)[C@@H](NC(=O)N1CC(c3ccccc3)C(CC3CC3)=N1)C2 (stereo partly drawn) [Compound 54, N-[Endo-(1R,2S,4R)-1,7,7-trimethylbicyclo[2.2.1]hept-2-yl]-3-(cyclopropylmethyl)-4-phenyl-4,5-dihydro-(1H)-pyrazole-1-carboxamide]
[1]
  Ki: 39.8 nM
Human CB1 receptor
  EC50: 251 nM
[2]
  Ki: 25.1 nM

## COc1ccc(NC(=O)N2CC(c3ccc(Cl)cc3)C(Cc3ccc(Cl)cc3)=N2)cc1 (centres unmarked)
other
  melting point: 116 to 119 °C

## CCCCCC1=NN(C(=O)c2cccc3ccccc23)CC1c1ccccc1 (centres unmarked) [Compound 87, 1-(1-Naphtoyl)-3-(n-pentyl)-4-phenyl-4,5-dihydro-(1H)-pyrazole]
[1]
  Ki: 100 nM
Human CB1 receptor
  EC50: 15.8 nM
[2]
  Ki: 79.4 nM

## CCCCC1=NN(C(=O)NC[C@@H]2CC[C@H]3C[C@@H]2C3(C)C)CC1c1ccccc1 (relative stereo) [Compound 7, N-[(1R,2S,5R)-rel-6,6-dimethylbicyclo[3.1.1]heptan-2-methyl]-3-(n-butyl)-4-phenyl-4,5-dihydro-(1H)-pyrazole-1-carboxamide]
[1]
  Ki: 10 nM
Human CB1 receptor
  EC50: 631 nM
[2]
  Ki: 39.8 nM

## CCCCCC1=NN(C(=O)Nc2cccc3ccccc23)CC1c1ccccc1 (centres unmarked) [Compound 18, N-(1-Naphtyl)-3-(n-pentyl)-4-phenyl-4,5-dihydro-(1H)-pyrazole-1-carboxamide]
[1]
  Ki: 31.6 nM
[2]
  Ki: 6.31 nM

## O=C(Nc1ccccc1)N1CC(c2ccc(Cl)cc2)C(Cc2ccc(Cl)cc2)=N1 (centres unmarked) [Compound 41, N-Phenyl-3-(4-chlorobenzyl)-4-(4-chlorophenyl)-4,5-dihydro-(1H)-pyrazole-1-carboxamide]
[1]
  Ki: 200 nM
other
  melting point: 156 °C
[2]
  Ki: 316 nM

## CCCCCC1=NN(C(=O)N[C@H]2C[C@H]3CC[C@]2(C)C3(C)C)CC1c1ccccc1 (stereo partly drawn) [Compound 97, N-Endo-[(1R,2S,4R)-1,7,7-trimethylbicyclo[2.2.1]hept-2-yl]-3-(n-pentyl)-4-phenyl-4,5-dihydro-(1H)-pyrazole-1-carboxamide]
[1]
  Ki: 5.01 nM
Human CB2 receptor; antagonism of 0.1 μM JWH-133-decreased [3H]cAMP formation
  Human CB2 CB2-mediated adenylate cyclase activity pA2: 9.2
Human CB1 receptor
  EC50: < 1 nM
[2]
  Ki: 5.01 nM

## CCCCCC1=NN(C(=O)NC2CCCCCC2)CC1c1ccccc1 (centres unmarked) [Compound 109, N-cycloheptyl-3-(n-pentyl)-4-phenyl-4,5-dihydro-(1H)-pyrazole-1-carboxamide]
[1]
  Ki: 25.1 nM
[2]
  Ki: 6.31 nM

## CCCCC1=NN(C(=O)NC(C)(C)Cc2ccccc2)CC1c1ccccc1F (centres unmarked) [Compound 40, N-(2-phenyl-1,1-dimethyl-ethyl)-3-(n-butyl)-4-(2-fluorophenyl)-4,5-dihydro-(1H)-pyrazole-1-carboxamide]
[1]
  Ki: 158 nM
Human CB2 receptor
  EC50: 7.94 nM
[2]
  Ki: 1580 nM
